# In article PMC6240096, “A hPSC-based platform to discover gene-environment interactions that impact human β-cell and dopamine neuron survival” (Nature Communications, 2018):
# Columns and labels:
# [1] = test system: primary human islets; experiment: Primary human islets, INS and propidium iodide staining; assay type: cell-based; details: 4 days treatment
# Excerpt: Fig. 1 A high-content screen identifies propargite as a compound that induces pancreatic β-cell death. a Scheme of pancreatic β-cell differentiation and high-content chemical screen. b Chemical structure of two hit compounds: Propargite and Vacor. c Inhibitory curve and IC50 of propargite or Vacor on INS^+ and INS^− cells (n = 8). d, e Immunocytochemistry analysis (d) and survival rate (e) of H1-derived glucose-responding INS^+ and INS^− cells treated with different doses of propargite (n = 8). Pancreatic β-like cells were stained for INS (green) and all cells were counterstained by DAPI (blue). Scale bars, 100 μm. The survival rate was calculated by dividing the average number of cells in propargite-treated conditions by the average number of cells in the DMSO control. f, g Representative live images (f) and fold-change (g) of INS^w/GFP HES3-derived INS-GFP^+ cells treated with 1.6 μM propargite or DMSO control at different time points compared to initial time 0 (n = 3). Scale bars, 100 μm. h, i, j Representative images (h) and cell survival rate (i) or cell death rate (j) of DMSO or propargite-treated human primary islets (n = 3). Pancreatic β-cells were stained with the INS antibody (green) and dead cells were stained with propidium iodide (PI) (red). Scale bars, 200 μm. Scale bars for higher resolution (Zoom) images, […]. Pancreatic β-cell death rate was calculated by defining percentages of INS^+ PI^+ cells in INS^+ cells, and non-β-cell death rate was calculated by percentages of INS^−PI^+ cells in INS^− cells.
# [2] = test system: mouse pancreatic β-cells; experiment: CD-1 mice treated by intraperitoneal injection for 5 days; assay type: in vivo
# Protocol: All animal work has been approved by IACUC committee of Weill Cornell Medical College. CD-1 adult male mice were treated with different doses of propargite or vehicle (corn oil) through intraperitoneal injection for 5 days. Fasting blood glucose level were monitored every day using Abbott FreeStyle Lite blood glucose monitoring system. Then, CD-1 adult male mice were treated with 12 mg/kg propargite or vehicle (corn oil) through intraperitoneal injection for 5 days. Fasting blood was collected via tail nicking following 14–16 h of fasting with ad libitum access to drinking water. Serum mouse insulin levels were assessed by ELISA (80-INSMR-CH01, Alpco). Mice were then killed. The pancreases were embedded in OCT. The tissue was then sectioned at 5 μm for immunohistochemistry staining analysis of DNA damage marker γ-H2A.X and β-cell marker INS.
# [3] = test system: MIN6 cells; experiment: Western blotting of γ-H2A.X and extracellular HMGB1 in MIN6 cells; assay type: cell-based, mouse; details: time course 1 to 30 h
# Excerpt: To extract intracellular protein, cells were placed on ice, washed twice with ice-cold PBS and lysed immediately with RIPA buffer (Life Technologies, 89900) supplemented with a protease inhibitor cocktail (Life Technologies, 78440). Cell lysates were then sonicated and the soluble fraction was collected after centrifugation. Protein amount was quantified by the BCA protein assay (Life Technologies, 23227). To extract extracellular HMGB1, tissue culture media were collected and concentrated using Afyon SDS-PAGE sample preparation kit (advansta, K-02101-025). 20 μg of total protein for each sample was mixed with loading buffer and incubated for 5 min at 95 °C before being loaded into NuPAGE® Novex® 4–12% […] Protein Gels (Life Technologies, NP0321BOX) for electrophoresis. Separated proteins were transferred to a PVDF membrane (Millipore, IPSN07852) after electrophoresis. The membrane was blocked with 5% non-fat milk in TBST (50 mM Tris–HCl at pH 8.0, 150 mM NaCl, 0.1% Tween 20) followed by overnight incubation with the primary antibody at 4 °C. The following antibodies were used with the dilution ratio noted: rabbit anti-HMGB1 (1:1000, Cell Signaling Technology, #6893), rabbit anti-γ-H2A.X (1:1000, Cell Signaling Technology, #9718), rabbit anti-LC3B (1:1000, Cell Signaling Technology, #3868), mouse anti-GSTT1 (1:1000, GeneTex, GTX109250), rabbit anti-GSTM1 (1:1000, R&D system, MAB6894), mouse anti-GAPDH (1:50000, Abcam, ab8245). A peroxidase conjugated horse anti-mouse IgG secondary antibody (1:20000, Vector Laboratories, PI-2000) or peroxidase conjugated goat anti-Rabbit IgG secondary antibody (1:20000, Vector Laboratories, PI-1000) was used for western blot. ECL signals were developed and detected using the SuperSignal™ West Femto Maximum Sensitivity Substrate (Life Technologies, 34094) and a C-DiGit Chemiluminescent Western Blot Scanner (LI-COR). Uncropped scans of all the blots were shown in Supplementary Fig. 7 in the Supplementary Information.
# [4] = 12 mg/kg daily for 5 days, intraperitoneal, CD-1 mice
substance,measurement,setting,value
2-(4-tert-butylphenoxy)-cyclohexyl prop-2-yne-1-sulfonate [propargite],number of INS+ cells in primary human islets,[1],decreased
same,percentage of PI+/INS+ cells in INS+ cells,[1],increased percentage
same,blood glucose level,[2]; [4],lightly increased
same,body weight,[2]; [4],without significantly affecting
same,insulin levels in the plasma of fasted mice,[2]; [4],significant reduction
same,percentage of γ-H2AX+/INS+ in INS+ cells (DNA damage),"[2]; 12 mg/kg, mouse pancreas",significant increase
same,time after treatment at which γ-H2A.X was induced,[3],12 h
same,time after treatment of detection of extracellular HMGB1,[3],18 h
